Entries after “also recorded” stand apart in the source; their conditions may differ.
Key:
[1] = system: MP46 and OMM1.3 human uveal melanoma cells; assay: Fe (ii) detection in lysosomes with RhoNox-M fluorescent probe; assay type: cell-based; conditions: AM23 30 nM or 100 nM, salinomycin 0.5 mM, 48 h, then RhoNox-M 1 h, compared to control cells
Description: A. MP46 and B. OMM1.3 human uveal melanoma cells were seeded at 5000 cells/well on a glass coverslip and were treated with DMSO (Ctl), AM23 (30 nM or 100 nM) or salinomycin (0.5 mM) for 48 h and then with RhoNox-M for 1 h for Fe 2+ detection. Representative confocal fluorescence microscopy images.
To assess whether AM23 triggers lysosomal iron accumulation, we evaluated whether endocytic vesicles contained Fe (ii) as previously reported. To this aim, the Fe (ii)-specific turn-on fluorescent probe RhoNox-M, which can detect the presence of Fe (ii) in lysosomes, was used. […] In response to the ensuing cytoplasmic depletion of iron, cells triggered in lysosomes the degradation of ferritin, which stores cellular iron, leading to further iron loading in this organelle.

ferritin = assay: Western blot of ferritin expression; assay type: cell-based, human; conditions: OMM1.3 and MP46 cells; AM23 100 nM or salinomycin 0.5 mM for 48 h; immunoblot
Description: FIG. 5: Effect of AM23 or salinomycin on ferritin expression. OMM1.3 and MP46 human uveal melanoma cells were left untreated (UNT) or were treated with DMSO (Ctl), AM23 (100 nM) or salinomycin (0.5 mM) for 48 h. Cell lysates were analysed by immunoblot with antibodies to ferritin. Actin was used as a loading control.
Briefly, uveal melanoma cell lysates (50 μg) were separated using SDS-PAGE, transferred onto a PVDF membrane and subsequently exposed to the appropriate antibodies, anti-ferritin (#sc376594, 1/1,000) and anti-actin (sc47778, 1/1,000) from Santa Cruz Biotechnology. The proteins were visualized using the ECL system (Amersham). The western blots shown are representative of at least 3 independent experiments.

[2] = system: Uveal melanoma cells (OMM1.3, MM28, MP46, MP65); assay: Cell survival assay (PrestoBlue), 2D-cultures; assay type: cell-based, human; conditions: increasing concentrations, PrestoBlue after 96 h / 72 h
Description: Uveal melanoma cells (OMM1.3, MM28, MP46, MP65) were seeded at 5,000 cells/well in a 96-well plate and treated with increasing concentrations of AM23, salinomycin or staurosporine as positive control as indicated on the figure. The condition “milieu RPMI” represents medium without cells. After 96 h of incubation, cells were incubated with PrestoBlue reagent according to manufacture instructions. The absorbance per well was measured with a microplate reader. The data were then analyzed using excel.
Uveal melanoma cells were seeded at 5,000 cells/well in a 96-well plate and treated with salinomycin or ironomycin as well as a positive control (staurosporin, 500 nM). After 72 h of incubation, cells were treated with PrestoBlue reagent according to manufacture instructions (Thermofisher). The absorbance per well was measured with a microplate reader. The data were then analyzed using excel software.
Uveal melanoma cells are known to hardly enter into apoptosis in response to treatments. Thus, we investigated the effects of salinomycin (Sal) and its derivate called ironomycin (AM23) that have been shown, in different cancer cells, to trigger ferroptosis, a type of cell death based on accumulation of iron into lysosomes and subsequent lysosomal membrane permeabilization. We treated a panel of uveal melanoma cells, i.e the human metastatic OMM1.3 (BAP1+) and MM28 (BAP1+) cells, and the human primary MP46 (BAP1−) and MP65 (BAP1−) cells, with Sal or its derivate AM23 to determine if these drugs can represent potential therapeutic options.

[3] = system: primary uveal melanoma cells (MP46 and MP65) or metastatic uveal melanoma cells (OMM1.3) expressing or not BAP1; assay: Colony formation assay; assay type: cell-based, human; conditions: MP46, MP65, OMM1.3, whether BAP1 is expressed or not; 7 days
Source text: FIG. 6: Colony formation assay of primary uveal melanoma cells (MP46 and MP65) or metastatic uveal melanoma cells (OMM1.3) expressing or not BAP1 after seeding them for 7 days upon treatment with the drugs indicated on the figure. Representative wells are shown.

[4] = system: Primary (MP46) or metastatic (OMM1, OMM2.5, OMM1.3) uveal melanoma cells; assay: PrestoBlue proliferation/survival assay (FIG. 7); assay type: cell-based, human; conditions: MP46, OMM1, OMM2.5, OMM1.3, increasing concentrations, 72 h
Description: FIG. 7: Primary (MP46) or metastatic (OMM1, OMM2.5, OMM1.3) uveal melanoma cells were seeded at 3000 cells/well in a 96 well plate and treated with increasing concentrations of salinomycin, AM23 or AM5. After 72 h of incubation, cells were treated with PrestoBlue reagent according to manufacture instructions. The absorbance per well was measured with a microplate reader. The data were then analyzed using Prism8. Histograms bars represent the average of three replicates #standard error of the mean (s.e.m).

[5] = system: Uveal melanoma cells (OMM1.3, MM28, MP65 and MP46); assay: Spheroid (melanosphere) formation, 3D-cultures; assay type: cell-based, human; conditions: AM23 100 nM (or 1 mM); low attachment plates; pictures after 8 days
Description: Uveal melanoma cells (OMM1.3, MM28, MP65 and MP46) were seeded at 5000 cells/well in 6-well low attachment plates and were left untreated (0) or were treated with DMSO (Ctl) or AM23 (100 nM or 1 mM) 24 hours later. Representative pictures taken after 8 days are shown.
Uveal melanoma cells were seeded at a density of 5,000 cells per well and grown in MEF medium (R&D systems, #AR005) supplemented with 4 ng/ml FGF2 in low adherence plates. The following day, wells were supplemented with ironomycin (100 nM or 1 mM). Photographs were taken using a phase contrast microscope (EVOS XL Core Imaging System).

[6] = system: PLX-resistant metastatic cutaneous melanoma cells; assay: Cell count of PLX-sensitive and resistant cutaneous melanoma cells; assay type: cell-based; parameters: dose or concentration left out as unconfirmed; conditions: increasing concentrations of AM23 or AM5 in presence or absence of PLX; cells counted after 72 h; FIG. 1
Description: PLX-sensitve and resistant cutaneous melanoma cells, seeded at 150,000 cells/well in 6-well dishes, were treated with increasing concentrations of AM23 or AM5 in presence or absence of PLX ([…]). Cells were manually counted after 72 h.
PLX-sensitve and resistant cutaneous melanoma cells were seeded at 150,000 cells/well in 6-well dishes. They were treated with increasing concentrations of AM23 or AM5 in presence or absence of PLX ([…]). Cells were manually counted after 72 h.

| Structure (SMILES) | Fe (ii) / iron accumulation in lysosomes (RhoNox-M fluorescence) [1] | Fe (ii) / iron accumulation in lysosomes (RhoNox-M fluorescence) ([1]; listed as Sal) | ferritin expression (ferritin) | proliferation/survival of uveal melanoma cells in 2D-cultures [2] | proliferation/survival of uveal melanoma cells in 2D-cultures ([2]; listed as Sal) | ability of uveal melanoma cells to form colonies [3] | uveal melanoma cell proliferation/survival (FIG. 7) [4] | melanosphere formation / cell survival in 3D-cultures [5] | resensitization of PLX-resistant cells to PLX effects (cell count) [6] |
| --- | --- | --- | --- | --- | --- | --- | --- | --- | --- |
| CC[C@@H](C(=O)O)C1CC[C@H](C)[C@H]([C@@H](C)[C@H](O)[C@H](C)C(=O)[C@H](CC)[C@H]2OC3(C=C[C@@H](O)C4(CC[C@@](C)([C@H]5CC[C@](O)(CC)[C@H](C)O5)O4)O3)[C@H](C)C[C@@H]2C)O1 (stereo in doubt) [Salinomycin, (2R)-2-[(5S,6R)-6-[(1S,2S,3S,5R)-5-[(2S,5R,7S,9S,10S, 12R, 15R)-2-[(2R,5R,6S)-5-ethyl-5-hydroxy-6-methyl-2-tetrahydropyranyl]-15-hydroxy-2,10,12-trimethyl-1,6,8-trioxadispiro[4.1.57.35]pentadec-13-en-9-yl]-2-hydroxy-1,3-dimethyl-4-oxoheptyl]-5-methyl-2-tetrahydropyranyl]butanoic acid, reference compound] | induces Fe (ii) in lysosomes | exhibited fluorescent RhoNox-M-positive vesicles | strongly reduced | induces uveal melanoma cell death | reduced proliferation/survival | strong reduction | – | – | – |
| C#CCN[C@@H]1C=C[C@]2(O[C@H]([C@@H](CC)C(=O)[C@@H](C)[C@@H](O)[C@H](C)C3O[C@@H](C(CC)C(=O)O)CC[C@@H]3C)[C@@H](C)C[C@H]2C)O[C@@]12CC[C@@](C)([C@H]1CC[C@](O)(CC)[C@H](C)O1)O2 (stereo partly shown) [AM5] | – | – | – | – | – | – | decreases uveal melanoma cell proliferation/survival, yet with a little bit lower efficacy than AM23 | – | – |
| C#CCN[C@@H]1C=C[C@]2(O[C@H]([C@@H](CC)C(=O)[C@@H](C)[C@@H](O)[C@H](C)[C@@H]3O[C@@H]([C@@H](CC)C(=O)O)CC[C@@H]3C)[C@@H](C)C[C@H]2C)O[C@@]12CC[C@@](C)([C@H]1CC[C@](O)(CC)[C@H](C)O1)O2 [AM23, (2R)-2-[(2R,5S,6R)-6-{(2S,3S,4S,6R)-6-[(2S,5S,7R,9S,10S,12R,15R)-2-[(2R,5R,6S)-5-Ethyl-5-hydroxy-6-methyltetrahydro-2H-pyran-2-yl]-2, 10,12-trimethyl-15-(2-propyn-1-ylamino)-1,6,8-trioxadispiro[4.1.5.3]pentadec-13-en-9-yl]-3-hydroxy-4-methyl-5-oxo-2-octanyl}-5-methyltetrahydro-2H-pyran-2-yl]butanoic acid] | induces Fe (ii) in lysosomes; also recorded: exhibited fluorescent RhoNox-M-positive vesicles | – | strongly reduced | induces uveal melanoma cell death; also recorded: reduced proliferation/survival | – | strong reduction | – | prevents melanosphere formation; also recorded: almost complete disappearance of melanospheres | resensitizes PLX-resistant metastatic cutaneous melanoma cells to PLX effects |

From patent publication US20250041261A1, “METHODS AND COMPOSITIONS FOR TREATING MELANOMA” (INSTITUT NATIONAL DE LA SANTÉ ET DE LA RECHERCHE MÉDICALE, priority 2021, published 2025)
